How the values were obtained:
Type in all cases: in vivo
[1] = system: sedge, umbrella (small-flower umbrella sedge, Cyperus difformis); assay: Test B flooded paddy test, visual plant response rating; conditions: 250 g ai/ha; applied to paddy water at 2-leaf stage; rated after 13 to 15 days; scale 0 to 100, 0 is no effect, 100 is complete control
Procedure, shortened: (§1)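 Visual 0–100 scores (0 none, 100 complete control) versus controls were taken 13 to 15 days after treatment in a greenhouse. Treatment was applied into flood water kept at 3 cm over the soil surface for the whole test.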

[2] = system: ducksalad (Heteranthera limosa); assay: as above; conditions: 250 g ai/ha; applied to paddy water at 2-leaf stage; rated after 13 to 15 days; scale 0 to 100, 0 is no effect, 100 is complete control
Procedure, shortened: as §1

rice (Oryza sativa) = assay: as above; conditions: 250 g ai/ha; applied to paddy water at 2-leaf stage; rated after 13 to 15 days; scale 0 to 100, 0 is no effect, 100 is complete control
Procedure, shortened: as §1

[3] = system: barnyardgrass (Echinochloa crus-galli); assay: as above; conditions: 250 g ai/ha; applied to paddy water at 2-leaf stage; rated after 13 to 15 days; scale 0 to 100, 0 is no effect, 100 is complete control
Procedure, shortened: as §1

kochia (Kochia scoparia) [4] = assay: Test A preemergence, directed soil spray, visual injury rating; conditions: approx. 10 d, 0 = no effect, 100 = complete control
Procedure, shortened: (§2)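 Seeds sown in loam/sand soil got a directed soil spray before emergence, or plants at one- to two-leaf stage (2-10 cm) were sprayed postemergence; chemical in non-phytotoxic solvent with surfactant. Greenhouse approx. 10 d, then visual injury vs untreated controls on 0 (no effect) to 100 (complete control) scale.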

[5] = system: ryegrass, Italian (Italian ryegrass, Lolium multiflorum); assay: as above; conditions: approx. 10 d, 0 = no effect, 100 = complete control
Procedure, shortened: as §2

[6] = system: foxtail, giant (giant foxtail, Setaria faberii); assay: as above; conditions: approx. 10 d, 0 = no effect, 100 = complete control
Procedure, shortened: as §2

[7] = system: ragweed (common ragweed, Ambrosia elation); assay: as above; conditions: approx. 10 d, 0 = no effect, 100 = complete control
Procedure, shortened: as §2

[8] = system: pigweed (Amaranthus retroflexus); assay: as above; conditions: approx. 10 d, 0 = no effect, 100 = complete control
Procedure, shortened: as §2

[9] = system: barnyardgrass (Echinochloa crus-galli); assay: as above; conditions: approx. 10 d, 0 = no effect, 100 = complete control
Procedure, shortened: as §2

corn (Zea mays) = assay: Test A postemergence application, visual injury rating; conditions: approx. 10 d, 0 = no effect, 100 = complete control
Procedure, shortened: as §2

kochia (Kochia scoparia) [10] = assay: as above; conditions: approx. 10 d, 0 = no effect, 100 = complete control
Procedure, shortened: as §2

[11] = system: ryegrass, Italian (Italian ryegrass, Lolium multiflorum); assay: as above; conditions: approx. 10 d, 0 = no effect, 100 = complete control
Procedure, shortened: as §2

[12] = system: foxtail, giant (giant foxtail, Setaria faberii); assay: as above; conditions: approx. 10 d, 0 = no effect, 100 = complete control
Procedure, shortened: as §2

[13] = system: ragweed (common ragweed, Ambrosia elation); assay: as above; conditions: approx. 10 d, 0 = no effect, 100 = complete control
Procedure, shortened: as §2

[14] = system: blackgrass (Alopecurus myosuroides); assay: as above; conditions: approx. 10 d, 0 = no effect, 100 = complete control
Procedure, shortened: as §2

[15] = system: wheat (Triticum aestivum); assay: as above; conditions: approx. 10 d, 0 = no effect, 100 = complete control
Procedure, shortened: as §2

[16] = system: pigweed (Amaranthus retroflexus); assay: as above; conditions: approx. 10 d, 0 = no effect, 100 = complete control
Procedure, shortened: as §2

[17] = system: barnyardgrass (Echinochloa crus-galli); assay: as above; conditions: approx. 10 d, 0 = no effect, 100 = complete control
Procedure, shortened: as §2

[18] = system: galium (catchweed bedstraw, Galium aparine); assay: as above; conditions: approx. 10 d, 0 = no effect, 100 = complete control
Procedure, shortened: as §2

Row | SMILES | Plant response rating, Flood, Sedge, Umbrella [1] | Plant response rating, Flood, Ducksalad [2] | Plant response rating, Flood, Rice (rice (Oryza sativa)) | Plant response rating, Flood, Barnyardgrass [3] | Kochia plant response rating (0 to 100 scale) (kochia (Kochia scoparia) [4]; 125 g ai/ha) | Kochia plant response rating (0 to 100 scale) (kochia (Kochia scoparia) [4]; 500 g ai/ha) | Ryegrass, Italian plant response rating (0 to 100 scale) ([5]; 125 g ai/ha) | Ryegrass, Italian plant response rating (0 to 100 scale) ([5]; 500 g ai/ha) | Foxtail, Giant plant response rating (0 to 100 scale) ([6]; 125 g ai/ha) | Foxtail, Giant plant response rating (0 to 100 scale) ([6]; 500 g ai/ha) | Ragweed plant response rating (0 to 100 scale) ([7]; 125 g ai/ha) | Ragweed plant response rating (0 to 100 scale) ([7]; 500 g ai/ha) | Pigweed plant response rating (0 to 100 scale) ([8]; 125 g ai/ha) | Pigweed plant response rating (0 to 100 scale) ([8]; 500 g ai/ha) | Barnyardgrass plant response rating (0 to 100 scale) ([9]; 125 g ai/ha) | Barnyardgrass plant response rating (0 to 100 scale) ([9]; 500 g ai/ha) | Corn plant response rating (0 to 100 scale) (corn (Zea mays); 125 g ai/ha) | Corn plant response rating (0 to 100 scale) (corn (Zea mays); 500 g ai/ha) | Kochia plant response rating (0 to 100 scale) (kochia (Kochia scoparia) [10]; 125 g ai/ha) | Kochia plant response rating (0 to 100 scale) (kochia (Kochia scoparia) [10]; 500 g ai/ha) | other results
1 | O=C(Nc1cccc(F)c1F)C1c2nnc(C(F)(F)F)n2CC1c1ccc(C(F)(F)F)cc1 (stereo not drawn) [Compound 22, N-(2,3-difluorophenyl)-6,7-dihydro-3-(trifluoromethyl)-6-[4-(trifluoromethyl)phenyl]-5H-pyrrolo[2,1-c]-1,2,4-triazole-7-carboxamide] | 0 | 30 | 0 | 0 | 0 | 0 | 0 | 0 | 0 | 30 | 0 | 0 | 0 | 0 | 0 | 20 | 0 | 0 | 0 | 0 | Ryegrass, Italian plant response rating (0 to 100 scale) ([11]; 125 g ai/ha): 0; Ryegrass, Italian plant response rating (0 to 100 scale) ([11]; 500 g ai/ha): 0; Foxtail, Giant plant response rating (0 to 100 scale) ([12]; 125 g ai/ha): 0; Foxtail, Giant plant response rating (0 to 100 scale) ([12]; 500 g ai/ha): 0; Ragweed plant response rating (0 to 100 scale) ([13]; 125 g ai/ha): 0; Ragweed plant response rating (0 to 100 scale) ([13]; 500 g ai/ha): 0; Blackgrass plant response rating (0 to 100 scale) ([14]; 125 g ai/ha): 0; Blackgrass plant response rating (0 to 100 scale) ([14]; 500 g ai/ha): 0; Wheat plant response rating (0 to 100 scale) ([15]; 125 g ai/ha): 0; Wheat plant response rating (0 to 100 scale) ([15]; 500 g ai/ha): 0; Pigweed plant response rating (0 to 100 scale) ([16]; 125 g ai/ha): 0; Pigweed plant response rating (0 to 100 scale) ([16]; 500 g ai/ha): 0; Barnyardgrass plant response rating (0 to 100 scale) ([17]; 125 g ai/ha): 0; Barnyardgrass plant response rating (0 to 100 scale) ([17]; 500 g ai/ha): 0; Galium plant response rating (0 to 100 scale) ([18]; 125 g ai/ha): 0; Galium plant response rating (0 to 100 scale) ([18]; 500 g ai/ha): 0
2 | CCc1ccc(C2Cn3c(C)nnc3C2C(=O)Nc2ccccc2SC)cc1 (stereo not drawn) [Compound 15] | 0 | 50 | 20 | 0 | 0 | 0 | 0 | 0 | 0 | 0 | 0 | 0 | 0 | 0 | 0 | 0 | 0 | 0 | 0 | 0 | Ryegrass, Italian plant response rating (0 to 100 scale) ([11]; 125 g ai/ha): 0; Ryegrass, Italian plant response rating (0 to 100 scale) ([11]; 500 g ai/ha): 0; Foxtail, Giant plant response rating (0 to 100 scale) ([12]; 125 g ai/ha): 0; Foxtail, Giant plant response rating (0 to 100 scale) ([12]; 500 g ai/ha): 0; Ragweed plant response rating (0 to 100 scale) ([13]; 125 g ai/ha): 0; Ragweed plant response rating (0 to 100 scale) ([13]; 500 g ai/ha): 0; Blackgrass plant response rating (0 to 100 scale) ([14]; 125 g ai/ha): 0; Blackgrass plant response rating (0 to 100 scale) ([14]; 500 g ai/ha): 0; Wheat plant response rating (0 to 100 scale) ([15]; 125 g ai/ha): 0; Wheat plant response rating (0 to 100 scale) ([15]; 500 g ai/ha): 0; Pigweed plant response rating (0 to 100 scale) ([16]; 125 g ai/ha): 0; Pigweed plant response rating (0 to 100 scale) ([16]; 500 g ai/ha): 0; Barnyardgrass plant response rating (0 to 100 scale) ([17]; 125 g ai/ha): 0; Barnyardgrass plant response rating (0 to 100 scale) ([17]; 500 g ai/ha): 0; Galium plant response rating (0 to 100 scale) ([18]; 125 g ai/ha): 0; Galium plant response rating (0 to 100 scale) ([18]; 500 g ai/ha): 0

Reference: patent US10442807B2, “Aryl substituted bicyclic compounds as herbicides” (FMC Corporation, priority 2015, dated 2019)
